Source: US20060025430A1, “Novel irreversible inhibitors of epidermal growth factor receptor tyrosine kinase and uses thereof for therapy and diagnosis” (priority 2003, published 2006)
Entries after “also recorded” stand apart in the source; their conditions may differ.

Experiments:
EGFR-TK [1] = target: T1, EGFR-TK (Homo sapiens, UniProt P00533); assay: EGFR-TK autophosphorylation inhibition in intact A431 cells (irreversibility assay, Western blot); assay type: cell-based; conditions: for nature of binding to the receptor (irreversibility): intact A431 cells, inhibition 8 hours post incubation
T1 construct: The supernatant, which contained the EGFR, was collected and frozen; endogenous in cells; host or cells: A431 cells (A1: Triton X-100 lysate captured on mAb108; A2: intact cells)
Description: A431 cells (5×10^5) were seeded in 6-well plates and grown for 24 hours to about 90% confluence in DMEM (high glucose) containing 10% fetal calf serum (FCS) and antibiotics at 37° C. The cells were then exposed to serum-free medium, at 37° C., for 18 hours.
[…] The medium was replaced thereafter with an inhibitor/FCS-free medium and the cells were divided into two groups: cells of the first group were immediately stimulated with EGF (20 ng/ml) for 5 minutes and then washed with PBS, while cells of the second group were incubated for additional 8 hours, at 37° C. During the 8 hours period, the medium was changed three times (after 2, 4 and 8 hours). After the post-incubation period, the cells of the second group were stimulated with EGF (20 ng/ml) for 5 minutes and then washed with PBS.
Identical protein amounts from each lysate sample were loaded onto polyacrylamide gel (6% or 10%), separated by electrophoresis (Hoefer Pharmacia Biotech Inc., San Francisco, USA) and transferred to nitrocellulose membrane (power supply: EPS 500/400, Amersham Pharmacia Biotech; nitrocellulose extra blotting membranes: Sartorius AG, Goettingen, Germany). A standard high molecular weight solution was loaded as a reference. For visualization of molecular weight bands, the membrane was immersed in Ponceau reagent (0.05% Ponceau, 5% acetic acid) for a few minutes, and then washed twice with TTN (10 mM Tris pH 7.4, 0.2% TWEEN 20, 170 mM NaCl) and once with water. The membrane was blocked overnight in TTN containing 5% milk (1% fat) (blocking TTN) and incubated for 90 minutes with PY20 antiphosphotyrosine antibody (Santa Cruz Biotechnology Inc., Santa Cruz, USA) diluted 1:2,000 in blocking TTN. The membrane was then washed with TTN (3×5 minutes), incubated for 90 minutes with a horseradish peroxidase-conjugated secondary antibody (Goat anti-mouse IgG H+L, Jackson ImResearch Laboratories, Inc., diluted 1:10,000 in blocking TTN), and finally washed again with TTN (3×5 minutes).
After the incubation, the media was replaced with inhibitor/FCS-free media and the inhibition effect was measured either immediately thereafter or after 8 hours post incubation.

EGFR = target: T2, EGFR (Homo sapiens, UniProt P00533); assay: Selective-inhibition assay in DHER14 cells (receptor phosphotyrosine, Western blot); assay type: cell-based; conditions: DHER14 cells expressing EGFR, 1 hour incubation, EGF stimulation
T2 construct: expressed in transfected cells; host or cells: NIH3T3 (DHER14 cells)
Description: (§1) NIH3T3 cells transformed with either the EGFR (DHER14 cells), with the HER1-HER2 chimera (CSH12 cells) or with the PDGFR (NIH/PDGFR cells), decribed by Lee et al.; 1989, Honegger et al., 1988; and Shawver et al. 1997, and A431 human epidermoid vulval carcinoma cells were grown in Dulbecco's modified Eagle's medium (DMEM) (Biological industries, Kibbuts Beit Haemek, Israel) supplemented with 10% fetal calf serum and antibiotics (penicillin […], streptomycin 100 mg/liter) at 37° C. in 5% CO2.
(§2) Selective-inhibition assay: CSH12, DHER14 and […] cells, expressing either the HER1-HER2 chimera, EGFR or PDGFR, respectively, were used for the determination of inhibitory selectivity. Cells (7.5×10^4) were grown in 6-well plates (35 mm diameter, Nalge Nunc) for 24 hours and then incubated in 0.25% FCS-containing medium for an additional 24 hours to about 90% confluence. Duplicate sets of cells were treated with the tested compounds at varying concentrations for 1 hour. The final concentration of the vehicle in the medium was 0.05% DMSO, 0.1% EtOH. After removal of the inhibitor from the medium, PBS wash (×2) and addition of 0.25% serum-containing medium to the wells, the cells were stimulated with either 20 ng/mL human EGF for 5 minutes (CSH12 and DHER14 cells) or 50 ng/ml human PDGFββ for 10 minutes ([…] cells) at 37° C. […]

PDGFR = PDGFR (Homo sapiens, UniProt P09619); assay: Selective-inhibition assay in […] cells (receptor phosphotyrosine, Western blot); assay type: cell-based; conditions: […] cells expressing PDGFR, 1 hour incubation, PDGFββ stimulation
Description: as §1, §2

[2] = Challenge reaction with reduced glutathione (HPLC conversion to conjugates); assay type: physicochemical; conditions: even at temperatures exceeding 100° C.
[3] = as above; assay type: physicochemical
Description: Standard solutions were prepared by dissolving compound 5, Compound 6 and {4-[(3,4-dichloro-6-fluorophenyl)amino]quinazol ine-6-yl}acrylamide (0.0146 mmol) in 1.75 ml of THF: MeOH (1:2) and glutathione (18 mg, 0.0586 mmol) in 0.5 ml of water. A 300 μL aliquot of the quinazoline standard solution (2.5 μmol) was diluted with 689 μL of THF:MeOH:H2O (1:2:1), after which 11 μL (1.25 μmol) of glutathione solution and 5.22 μL (30 μmol) of N,N′-diisopropylethylamine were added. Conversions of the quinazolines and formation of conjugates at different time points were measured by HPLC using RP (3.9×300 mm) column (mobile phase of acetonirile and acetate buffer 0.1 M (2:3) at a flow rate of 1 ml/min was used herein). The glutathione conjugates were further detected by MS.
As discussed hereinabove, EGFR blockade by irreversible inhibitors is due to the nucleophilic attack of the sulfhydryl group of Cys-773 at the receptor's ATP binding pocket on the reactive chemical group of the EGFR targeted inhibitor. In order to evaluate the chemical reactivity of the novel irreversibly EGFR inhibitors decribed herein, the degree of reactivity of the inhibitors towards the sulfhydryl group of reduced glutathione (GSH) as a nucleophile was tested. Thus, Compound 5, Compound 6 and {4-[(3,4-dichloro-6-fluorophenyl)amino]quinazoline-6-yl}acrylamide were dissolved in THF: MeOH: H2O (1:2:1), and were reacted at room temperature with half an equivalent of reduced glutathione in the presence of 12 equivalents of N,N-diisopropylethylamine. Identical aliquots of the reaction mixtures were taken at various time points and injected into reversed-phase HPLC in order to determine the conversion-rate of the various compounds into glutathione-conjugates. The characteristics of the products were determined using MS.
A study of the reaction rate as a function of the temperature was also performed. Thus, the reaction ws performed at various temperatures ranging from 0° C. and 60° C. The following activation parameters were generated: For {4-[(3,4-dichloro-6-fluorophenyl)amino]quinazoline-6-yl}acrylamide: Ea=5.24 kCalmol^−1, ΔH^#25° C.=4.64 kCalmol^−1 and ΔS^#25° C.=−61.24 Calmol^−1K^−1. For compound 5: Ea=11.4 kCalmol^−1, ΔH^#25° C.=10.80 kCalmol^−1 and ΔS^#25° C.=−41.29 Calmol^−1K^−1.
The reaction rate was calculated using the following rate equation: [formula] kobs=Ae^−Ea/RT

EGFR-TK [4] = target: T1, EGFR-TK; assay: EGFR-TK autophosphorylation inhibition in A431 cell lysate (ELISA); assay type: biochemical; conditions: read-out: A431 lysate IC50 app
Description: All the following incubations were performed at room temperature and with constant shaking. […] The final volume for each well was 150 μl.
In this step the temperature was kept at 26° C. and the plate was under constant shaking. The incubation with ATP/MnCl2 was for 5 minutes.
Afterward, polyclonal anti-phosphotyrosine serum (Sugen, Inc.) was added (dilution of antibody in TBST containing 5% milk). The incubation was for 45 minutes.

[5] = Intact A431 cells IC50 range (1 hr post incubation with inhibitor), 1 hour incubation with inhibitor, medium replaced, EGF stimulation immediately
[6] = Intact A431 cells IC50 range (8 hr post incubation with inhibitor), 1 hour incubation, then 8 hours in inhibitor-free medium before EGF stimulation

T1 sequence (P00533 25-1210): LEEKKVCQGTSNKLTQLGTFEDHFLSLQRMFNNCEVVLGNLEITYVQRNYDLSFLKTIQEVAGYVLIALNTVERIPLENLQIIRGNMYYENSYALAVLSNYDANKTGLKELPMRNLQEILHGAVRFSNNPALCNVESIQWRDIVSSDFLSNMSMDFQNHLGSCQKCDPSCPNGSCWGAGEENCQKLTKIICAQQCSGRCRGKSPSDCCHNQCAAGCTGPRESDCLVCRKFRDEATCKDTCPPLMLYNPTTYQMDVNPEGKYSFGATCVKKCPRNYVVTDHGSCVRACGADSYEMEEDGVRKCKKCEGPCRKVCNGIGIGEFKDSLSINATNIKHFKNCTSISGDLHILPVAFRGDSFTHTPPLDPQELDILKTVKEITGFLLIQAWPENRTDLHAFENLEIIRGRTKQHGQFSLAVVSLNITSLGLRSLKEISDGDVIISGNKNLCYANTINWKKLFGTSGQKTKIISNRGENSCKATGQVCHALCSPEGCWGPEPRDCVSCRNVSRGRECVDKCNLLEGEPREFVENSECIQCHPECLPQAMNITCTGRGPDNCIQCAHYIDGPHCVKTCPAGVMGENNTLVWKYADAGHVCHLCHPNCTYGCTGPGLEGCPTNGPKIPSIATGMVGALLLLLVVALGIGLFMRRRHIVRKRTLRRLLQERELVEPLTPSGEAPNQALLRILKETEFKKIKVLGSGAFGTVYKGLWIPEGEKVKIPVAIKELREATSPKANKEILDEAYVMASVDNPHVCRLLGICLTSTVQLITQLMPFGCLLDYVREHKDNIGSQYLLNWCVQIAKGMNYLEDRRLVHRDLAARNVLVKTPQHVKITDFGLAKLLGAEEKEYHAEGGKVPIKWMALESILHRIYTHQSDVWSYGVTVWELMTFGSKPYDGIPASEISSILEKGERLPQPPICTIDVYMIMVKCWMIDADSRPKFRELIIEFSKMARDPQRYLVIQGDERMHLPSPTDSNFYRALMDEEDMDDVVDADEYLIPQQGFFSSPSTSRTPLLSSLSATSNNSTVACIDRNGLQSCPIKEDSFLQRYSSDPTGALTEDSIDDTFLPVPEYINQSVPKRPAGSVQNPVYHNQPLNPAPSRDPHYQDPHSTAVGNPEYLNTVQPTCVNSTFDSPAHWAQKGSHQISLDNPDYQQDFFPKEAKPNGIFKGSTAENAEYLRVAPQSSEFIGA
Sequence of PDGFR (P09619 whole entry): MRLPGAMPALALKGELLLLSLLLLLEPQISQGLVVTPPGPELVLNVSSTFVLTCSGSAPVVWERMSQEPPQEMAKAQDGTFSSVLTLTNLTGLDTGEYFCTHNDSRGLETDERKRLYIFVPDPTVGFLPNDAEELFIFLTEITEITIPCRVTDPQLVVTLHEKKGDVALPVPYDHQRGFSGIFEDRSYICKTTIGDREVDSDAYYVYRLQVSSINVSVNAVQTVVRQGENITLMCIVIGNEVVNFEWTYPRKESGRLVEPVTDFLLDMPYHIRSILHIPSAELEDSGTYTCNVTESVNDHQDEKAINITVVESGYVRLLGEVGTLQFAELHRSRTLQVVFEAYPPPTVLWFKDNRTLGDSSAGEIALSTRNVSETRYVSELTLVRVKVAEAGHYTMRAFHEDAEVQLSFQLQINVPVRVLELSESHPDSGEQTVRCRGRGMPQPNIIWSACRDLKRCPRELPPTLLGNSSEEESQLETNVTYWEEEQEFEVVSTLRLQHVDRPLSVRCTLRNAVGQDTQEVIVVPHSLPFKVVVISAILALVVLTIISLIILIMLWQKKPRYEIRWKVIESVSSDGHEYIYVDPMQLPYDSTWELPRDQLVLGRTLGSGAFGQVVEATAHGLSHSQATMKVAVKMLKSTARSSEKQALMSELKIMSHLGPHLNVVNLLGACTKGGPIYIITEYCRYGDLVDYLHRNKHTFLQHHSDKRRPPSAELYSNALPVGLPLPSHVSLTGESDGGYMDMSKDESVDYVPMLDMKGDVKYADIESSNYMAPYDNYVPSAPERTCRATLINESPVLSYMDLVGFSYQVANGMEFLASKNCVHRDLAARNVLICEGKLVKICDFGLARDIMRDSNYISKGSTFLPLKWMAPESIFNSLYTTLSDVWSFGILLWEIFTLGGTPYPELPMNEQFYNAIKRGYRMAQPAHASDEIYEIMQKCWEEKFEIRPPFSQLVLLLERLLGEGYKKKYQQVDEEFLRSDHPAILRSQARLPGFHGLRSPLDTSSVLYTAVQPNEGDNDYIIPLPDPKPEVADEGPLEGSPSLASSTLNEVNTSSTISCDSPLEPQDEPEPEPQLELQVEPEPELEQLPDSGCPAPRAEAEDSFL
T2 sequence (P00533 25-1210): as the sequence (P00533 25-1210) above

| SMILES | melting point | IC50 (EGFR-TK [1]; [5]) | IC50 (EGFR-TK [1]; [6]) | IC50 (EGFR-TK [4]) | further results |
| --- | --- | --- | --- | --- | --- |
| COCC(=O)Nc1ccc2ncnc(Nc3cccc(I)c3)c2c1 [Compound 4, N-{4-[(3-iodophenyl)amino]-quinazolin-6-yl}-2-methoxyacetamide] |  |  |  |  | nature of binding to the receptor (irreversibility) (EGFR-TK [1]): partial irreversible |
| COCC(=O)Nc1ccc2ncnc(Nc3cc(Cl)c(Cl)cc3F)c2c1 [Compound 6, N-{4-[(4,5-Dichloro-2-fluoro-phenyl)amino]-quinazolin-6-yl}-2-methoxyacetamide] | 204 to 206 °C |  |  |  | nature of binding to the receptor (irreversibility) (EGFR-TK [1]): partial irreversible; IC50 (EGFR): > 250 nM; IC50 (PDGFR): > 1000 nM; change in the reaction rate with GSH with temperature [2]: no change in the reaction rate; also recorded: could not be detected |
| C=CC(=O)Nc1ccc2ncnc(Nc3cc(Cl)c(Cl)cc3F)c2c1 [Compound A, N-{4-[(3,4-dichloro-6-fluorophenyl)amino]quinazoline-6-yl}acrylamide, reference compound] |  |  |  |  | ΔH^# 25° C. of reaction with reduced glutathione ([3]; 25° C.): 4.64 kCalmol^−1; ΔS^# 25° C. of reaction with reduced glutathione ([3]; 25° C.): −61.24 Calmol^−1K^−1; reaction rate constant with reduced glutathione ([3]; room temperature, THF:MeOH:H2O (1:2:1), half an equivalent GSH, 12 equivalents N,N-diisopropylethylamine): 0.0001 M/min; activation energy Ea of reaction with reduced glutathione ([3]; temperatures from 0° C. to 60° C.): 5.24 kCalmol^−1 |
| C=CC(=O)Nc1ccc2ncnc(Nc3cc(Cl)c(Cl)cc3F)c2c1 [drawing 14] |  | 5 to 50 nM | 5 to 50 nM |  | IC50 (EGFR-TK [4]; apparent IC50, ELISA, 5 μM ATP/5 mM MnCl2, average of four dose-response curves): 0.037 nM |
| O=C(CCl)Nc1ccc2ncnc(Nc3cc(Cl)c(Cl)cc3F)c2c1 [drawing 19] |  | 1 to 20 nM | 1 to 20 nM | 5.55 nM |  |
| COCC(=O)Nc1ccc2ncnc(Nc3cc(Cl)c(Cl)cc3F)c2c1 [drawing 20] |  |  | 10000 to 50000 nM | 113 nM |  |

Second part, led by results:

| melting point | IC50 (EGFR-TK [1]; [5]) | IC50 (EGFR-TK [1]; [6]) | IC50 (EGFR-TK [4]) | SMILES | further results |
| --- | --- | --- | --- | --- | --- |
| > 300 °C |  |  |  | O=C(CCl)Nc1ccc2ncnc(Nc3cccc(Br)c3)c2c1 [Compound 1, N-{4-[(3-bromophenyl)amino]-quinazolin-6-yl}-2-chloroacetamide] |  |
| 190 to 191 °C |  |  |  | COCC(=O)Nc1ccc2ncnc(Nc3cccc(Br)c3)c2c1 [Compound 2, N-{4-[(3-bromophenyl)amino]-quinazolin-6-yl}-2-methoxyacetamide] |  |
| > 300 °C |  |  |  | O=C(CCl)Nc1ccc2ncnc(Nc3cccc(I)c3)c2c1 [Compound 3, N-{4-[(3-iodophenyl)amino]-quinazolin-6-yl}-2-chloroacetamide] |  |
|  | 1000 to 20000 nM | > 80000 nM | 65 nM | COCC(=O)Nc1ccc2ncnc(Nc3cccc(I)c3)c2c1 [drawing 18] |  |
